Several values for one entry are separate records, joined by “and”; a condition that tells them apart may be missing. Equal values may be shown once. Read-outs that look alike come from different tables or passages of the source.
Tests used:
[1] = molecular target: LiTryS (Leishmania infantum trypanothione synthetase) (Leishmania infantum, UniProt A4I2Z3); assay: biochemical; assay type: biochemical; details: for inhibition at 30 µM: read-out: % LiTryS inhibition ± 2σn-1; for activity at 30 µM: read-out: LiTryS Activity ± 2σn-1 (%); for IC50: read-out: LiTryS IC50 (estimated)
LiTryS (Leishmania infantum trypanothione synthetase), sequence (A4I2Z3 1-652): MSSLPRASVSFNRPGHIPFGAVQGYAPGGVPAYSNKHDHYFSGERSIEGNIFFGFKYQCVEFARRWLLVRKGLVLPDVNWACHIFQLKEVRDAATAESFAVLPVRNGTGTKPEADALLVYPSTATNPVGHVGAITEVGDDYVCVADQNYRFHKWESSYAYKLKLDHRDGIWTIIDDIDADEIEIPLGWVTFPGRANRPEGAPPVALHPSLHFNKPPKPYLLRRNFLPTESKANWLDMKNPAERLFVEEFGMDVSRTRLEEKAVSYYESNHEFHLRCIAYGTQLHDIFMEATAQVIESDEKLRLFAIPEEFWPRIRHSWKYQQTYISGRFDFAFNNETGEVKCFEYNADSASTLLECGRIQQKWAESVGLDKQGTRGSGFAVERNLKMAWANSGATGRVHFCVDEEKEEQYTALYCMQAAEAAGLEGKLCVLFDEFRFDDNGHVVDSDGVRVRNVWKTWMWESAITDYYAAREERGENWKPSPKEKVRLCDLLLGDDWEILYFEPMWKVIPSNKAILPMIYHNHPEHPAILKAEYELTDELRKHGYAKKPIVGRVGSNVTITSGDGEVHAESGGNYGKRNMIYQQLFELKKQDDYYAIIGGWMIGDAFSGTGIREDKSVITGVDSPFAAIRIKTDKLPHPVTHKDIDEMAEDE

[2] = system: bloodstream Trypanosoma brucei brucei; assay: Proliferation/cytotoxicity assay, infective T. b. brucei; assay type: cell-based; details: 24 h, read-out: T. b. Brucei EC50
[3] = molecular target: TcTryS (Trypanosoma cruzi trypanothione synthetase) (Trypanosoma cruzi, UniProt Q9GT49); assay: biochemical; assay type: biochemical; details: for inhibition at 30 µM: read-out: % TcTryS inhibition ± 2σn-1; for remaining activity at 30 µM: read-out: TcTryS Activity ± 2σn-1 (%)
TcTryS (Trypanosoma cruzi trypanothione synthetase), sequence (Q9GT49 whole entry): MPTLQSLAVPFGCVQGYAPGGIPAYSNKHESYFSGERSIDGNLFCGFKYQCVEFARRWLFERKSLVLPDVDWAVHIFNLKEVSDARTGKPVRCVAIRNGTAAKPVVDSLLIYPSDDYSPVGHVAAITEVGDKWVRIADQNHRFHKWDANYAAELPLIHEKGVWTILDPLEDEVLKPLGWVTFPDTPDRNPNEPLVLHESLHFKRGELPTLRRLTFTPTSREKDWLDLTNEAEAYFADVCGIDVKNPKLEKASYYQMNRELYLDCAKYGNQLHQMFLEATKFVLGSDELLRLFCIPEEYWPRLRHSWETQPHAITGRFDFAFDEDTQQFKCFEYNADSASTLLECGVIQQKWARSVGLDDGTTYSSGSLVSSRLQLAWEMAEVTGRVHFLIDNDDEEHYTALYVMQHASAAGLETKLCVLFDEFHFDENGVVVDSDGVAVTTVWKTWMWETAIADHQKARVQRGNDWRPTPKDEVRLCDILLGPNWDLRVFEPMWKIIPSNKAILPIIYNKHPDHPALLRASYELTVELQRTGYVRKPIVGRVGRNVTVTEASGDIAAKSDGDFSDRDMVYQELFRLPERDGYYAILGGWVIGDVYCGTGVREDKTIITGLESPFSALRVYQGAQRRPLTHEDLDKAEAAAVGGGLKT

[4] = molecular target: TbTryS (Trypanosoma brucei trypanothione synthetase) (Trypanosoma brucei brucei, UniProt Q8IEX1); assay: biochemical; details: for inhibition at 30 µM: read-out: % TbTryS inhibition ± 2σn-1; for activity at 30 µM: read-out: TbTryS Activity ± 2σn-1 (%)
TbTryS (Trypanosoma brucei trypanothione synthetase), sequence (Q8IEX1 1-627): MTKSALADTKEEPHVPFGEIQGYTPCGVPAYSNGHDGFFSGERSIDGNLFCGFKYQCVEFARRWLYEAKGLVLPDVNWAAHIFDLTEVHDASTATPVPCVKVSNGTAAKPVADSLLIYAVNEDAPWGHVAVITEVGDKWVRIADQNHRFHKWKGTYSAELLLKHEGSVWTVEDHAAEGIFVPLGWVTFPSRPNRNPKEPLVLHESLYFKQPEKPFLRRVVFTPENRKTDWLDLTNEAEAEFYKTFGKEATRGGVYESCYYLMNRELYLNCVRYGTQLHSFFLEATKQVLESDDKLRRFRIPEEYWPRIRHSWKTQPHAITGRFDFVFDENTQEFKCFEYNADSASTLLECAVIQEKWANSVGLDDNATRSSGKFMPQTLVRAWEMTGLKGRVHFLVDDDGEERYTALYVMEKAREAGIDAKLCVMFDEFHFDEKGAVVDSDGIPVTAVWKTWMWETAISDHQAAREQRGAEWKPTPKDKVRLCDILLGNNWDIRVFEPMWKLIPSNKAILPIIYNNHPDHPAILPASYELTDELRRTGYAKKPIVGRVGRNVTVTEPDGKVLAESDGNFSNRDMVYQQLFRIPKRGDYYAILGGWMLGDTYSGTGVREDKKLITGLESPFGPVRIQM

Structure (SMILES)	LiTryS Activity ± 2σn-1 (%) [1]	TbTryS Activity ± 2σn-1 (%) [4]	TcTryS Activity ± 2σn-1 (%) [3]	further results
COc1cc(CNCCCCNCc2ccc(OCc3ccccc3)c(OC)c2)ccc1OCc1ccccc1 [APC1-89]	–	–	–	inhibition at 30 µM [1]: 23.4%; activity at 30 µM [1]: 76.6%; EC50 [2]: 0.061 ± 0.001 µM; inhibition at 30 µM [3]: 25.6 ± 1.4%; remaining activity at 30 µM [3]: 74.4%; IC50 [4]: ~30 µM; inhibition at 30 µM [4]: 50.9%
COc1cc(CNCCCCCCNCc2ccc(OCc3ccccc3)c(OC)c2)ccc1OCc1ccccc1 [APC1-101]	–	–	–	inhibition at 30 µM [1]: 26.3%; activity at 30 µM [1]: 73.7%; EC50 [2]: 0.28 ± 0.09 µM; inhibition at 30 µM [3]: 17%; remaining activity at 30 µM [3]: 83%; IC50 [4]: ≤ 30 µM; inhibition at 30 µM [4]: 61.2%; activity at 30 µM [4]: 38.8%
COc1cc(CNCCCCCCCCNCc2ccc(OCc3ccccc3)c(OC)c2)ccc1OCc1ccccc1 [APC1-111, N^1,N^8-bis(4-(benzyloxy)-3-methoxybenzyl)octane-1,8-diamine]	halved	halved	–	inhibition at 30 µM [1]: 49.6%; IC50 [1]: ~30 µM; EC50 [2]: 0.04 ± 0.001 µM; inhibition at 30 µM [3]: 28.9%; remaining activity at 30 µM [3]: 71.1%; IC50 [4]: ≤ 30 µM; inhibition at 30 µM [4]: 55.6%; activity at 30 µM [4]: 44.4%
[O-][n+]1onc2cc(Cl)ccc21 [Compound J12]	93.8 ± 3.9; 4%	92.7 ± 2.7; 3%	63.7 ± 0.5; 4%	–
[O-][n+]1onc2cc(Cl)c(Cl)cc21 [Compound J13]	102.2 ± 7.8; 3%	88.9 ± 2.7; 3%	84.9 ± 4.4; 3%	–
COc1ccc2c(c1)no[n+]2[O-] [Compound J14]	96.1 ± 7.3; 4%	93.1 ± 5.6; 4%	77.2 ± 4.4; 4%	–
O=[N+]([O-])c1ccc2c(c1)no[n+]2[O-] [Compound J16]	80.1 ± 9.2; 4%	92.6 ± 4.9; 3%	76.5 ± 1.0; 3%	–
[O-][n+]1onc2cc(C(F)(F)F)ccc21 [Compound J25]	110.7 ± 2.4; 3%	98.4 ± 4.2; 3%	81.8 ± 2.2; 3%	–
[O-][n+]1onc2c(Cl)cc(Cl)cc21 [Compound J26]	88.0 ± 1.0; 3%	104.9 ± 5.7; 3%	95.8 ± 1.1; 3%	–
[O-][n+]1onc2cc(I)ccc21 [Compound J27]	71.0 ± 8.0; 3%	98.2 ± 5.6; 3%	90.1 ± 5.9; 3%	–
[O-][n+]1onc2cc(F)ccc21 [Compound J31]	–	–	118.8 ± 6.1; 4 (1.00) %	activity at 30 µM [1]: 84.1 ± 0.001%; remaining activity at 30 µM [3]: 119%; activity at 30 µM [4]: 96.2 ± 3.7%
COc1cc2no[n+]([O-])c2cc1OC [Compound J32]	72.7 ± 7.2; 4%	93.4 ± 4.5; 4%	98.1 ± 6.4; 4%	–
[O-][n+]1onc2cc(Br)ccc21 [Compound J33]	76.0 ± 6.8; 3%	96.5 ± 6.3; 3%	98.1 ± 4.0; 3%	–
[O-][n+]1onc2cc(F)c(F)cc21 [Compound J40]	92.9 ± 5.1; 4%	85.0 ± 1.4; 2%	87.4 ± 1.6; 3%	–
c1ccc(CNCCCCCCCCNCc2ccccc2)cc1 [EAP1-5 (I)]	62.8 ± 3.9; 4%	78.3 ± 3.6; 4%	82.8 ± 5.2; 3%	–
c1ccc(CNCCCCCCCCCCCCNCc2ccccc2)cc1 [EAP1-9]	89.6 ± 9.4; 3%	74.9 ± 4.1; 4%	87.3 ± 5.4; 4%	–
COc1ccc(CNCCCCCCCCCCCCNCc2ccc(OC)cc2)cc1 [EAP1-11]	62.0 ± 7.8; 4%	77.2 ± 4.5; 5 (1.30) %	82.8 ± 7.6; 3%	–
CC(C)c1ccc(CNCCCCCCCCNCc2ccc(C(C)C)cc2)cc1 [EAP1-37]	77.4 ± 7.9; 9 (1.284) %	56.8 ± 5.6; 3 (1.43) %	65.6 ± 5.3; 4 (1.46) %	–

Structure (SMILES)	LiTryS Activity ± 2σn-1 (%) [1]	TbTryS Activity ± 2σn-1 (%) [4]	TcTryS Activity ± 2σn-1 (%) [3]	further results
Fc1ccc(CNCCCCCCCCNCc2ccc(F)cc2)cc1 [EAP1-39]	69.6 ± 5.5; 4%	85.7 ± 2.0; 3%	96.0 ± 4.0; 4%	–
Clc1ccc(CNCCCCCCCCNCc2ccc(Cl)cc2)cc1 [EAP1-43]	78.0 ± 5.9; 4%	69.7 ± 3.0; 4%	87.9 ± 4.7; 4%	–
Cc1ccc(CNCCCCCCCCNCc2ccc(C)cc2)cc1 [EAP1-45]	91.9 ± 2.7; 3%	78.4 ± 0.6; 3%	92.3 ± 4.5; 4%	–
Brc1ccc(CNCCCCCCCCNCc2ccc(Br)cc2)cc1 [EAP1-46]	61.8 ± 3.9; 3%	73.4 ± 1.7; 3%	93.7 ± 7.6; 3%	–
Fc1ccc(CNCCCCCCCCCCNCc2ccc(F)cc2)cc1 [EAP1-51]	80.6 ± 2.7; 4%	81.0 ± 7.5; 3%	87.5 ± 4.6; 4%	–
Clc1ccc(CNCCCCCCCCCCNCc2ccc(Cl)cc2)cc1 [EAP1-53]	69 ± 5.7; 4 (1.305) %	63.9 ± 4.1; 4 (1.34) %	73.3 ± 2.3; 4%	–
Cc1ccc(CNCCCCCCCCCCNCc2ccc(C)cc2)cc1 [EAP1-55]	71.5 ± 5.8; 4%	61.8 ± 4.8; 3%	68.6 ± 3.9; 2%	–
Brc1ccc(CNCCCCCCCCCCNCc2ccc(Br)cc2)cc1 [EAP1-57]	75.2 ± 4.5; 3%	62.6 ± 3.6; 3 (1.26) %	81.2 ± 4.2; 3%	–
Clc1ccc(CNCCCCCCCCCCCCNCc2ccc(Cl)cc2)cc1 [EAP1-67]	–	57.6 ± 1.6; 4 (1.33) %	76.2 ± 6.6; 4 (1.34) %	IC50 [1]: ~30 µM; % TcTryS inhibition ± 2σn-1 [3]: 23.8 ± 6.6%; (1.34); % TbTryS inhibition ± 2σn-1 [4]: 42.4 ± 1.6%; (1.33)
Fc1ccc(CNCCCCCCCCCCCCNCc2ccc(F)cc2)cc1 [EAP1-69]	63.2 ± 5.0; 4%	81.4 ± 5.6; 4 (1.39) %	56.3 ± 3.6; 3%	% TcTryS inhibition ± 2σn-1 [3]: ~ 50%
[O-][n+]1onc2ccccc21 [J09/J34]	84.9 ± 5.5; 4%	90.9 ± 5.9; 4%	102.2 ± 3.3; 3%	–
Cn1c(=O)c2c(nc(N/N=C\c3ccc(O)cc3O)n2CC(O)COc2ccccc2)n(C)c1=O (stereo not drawn) [TC227, (Z)-8-(2-(2,4-dihydroxybenzylidene)hydrazinyl)-7-(2-hydroxy-3-phenoxypropyl)-1,3-dimethyl-1H-purine-2,6(3H,7H)-dione]	–	–	161.6 ± 5.3; 3 (0.98) %	activity at 30 µM [1]: 88.5 ± 7.1%; % TryS activity (TcTryS) [3]: 1.1 ± 3.1; 4% and 0.2 ± 3.1; 4% and 1.1 ± 2.1; 4%; remaining activity at 30 µM [3]: 162%; activity at 30 µM [4]: 102 ± 2.3%
CC(C)(C)NC(=O)Nc1nc2nc(N)ncc2cc1-c1ccc2ccccc2c1 [ZEA10]	–	–	–	inhibition at 30 µM [1]: 32.1 ± 6.4%; activity at 30 µM [1]: 67.9%; EC50 [2]: 0.28 ± 0.08 µM; inhibition at 30 µM [3]: 32.3 ± 4%; remaining activity at 30 µM [3]: 67.7%; IC50 [4]: ~30 µM; inhibition at 30 µM [4]: 50%
CC(C)(C)NC(=O)Nc1ncc2cc(-c3ccc4c(c3)OCO4)c(NC(=O)NC(C)(C)C)nc2n1 [ZEA40]	–	–	–	inhibition at 30 µM [1]: 15.3 ± 8.3%; activity at 30 µM [1]: 84.7%; inhibition at 30 µM [3]: 50%; inhibition at 30 µM [4]: 25.3 ± 5.2%; activity at 30 µM [4]: 74.7%
CCNC(=S)Nc1nc2nc(N)ncc2cc1-c1ccc2c(c1)OCO2 [ZEA41]	–	–	–	inhibition at 30 µM [1]: 13.6 ± 3.4%; activity at 30 µM [1]: 86.4%; inhibition at 30 µM [3]: 50%; inhibition at 30 µM [4]: 20.9 ± 4.4%; activity at 30 µM [4]: 79.1%
CCCCN(CCCC)C(=O)c1cnc(N)o1 [ZVR103]	99.4 ± 5.6; 4%	82.4 ± 4.7; 3%	100.0 ± 5.0; 2%	–
CCNC(=S)Nc1nc2nc(NCCCN3CCOCC3)ncc2cc1-c1cc(OC)cc(OC)c1 [ZVR159]	–	–	168.6 ± 4.1; 4 (1.10) %	activity at 30 µM [1]: 101 ± 5.8%; % TryS activity (TcTryS) [3]: 1.2 ± 3.1; 3% and 0.2 ± 4.0; 4% and 1.2 ± 5.1; 4%; remaining activity at 30 µM [3]: 169%; activity at 30 µM [4]: 81.3 ± 1.6%
CC1CS(=O)(=O)CCN1/N=C/c1ccc([N+](=O)[O-])o1 (stereo not drawn) [nifurtimox, reference compound]	–	–	–	EC50 ([2]; bloodstream T. b. brucei): 5 µM

From PMC4829233, “Identification of Novel Chemical Scaffolds Inhibiting Trypanothione Synthetase from Pathogenic Trypanosomatids” (PLoS Neglected Tropical Diseases, 2016)
